Measured values as given in the NIST ThermoML archive (doi:10.1021/je100945u).

Conditions: Liquid, Vibrating tube method

CCn1cc[n+](C)c1.O=S(=O)([N-]S(=O)(=O)C(F)(F)F)C(F)(F)F
Conditions	mass density [kg/m3]
283.15 K, 101.33 kPa	1533.48
283.19 K, 1750 kPa	1533.9
283.19 K, 5136 kPa	1536.34
283.19 K, 49993 kPa	1565.54
283.19 K, 60272 kPa	1571.51
283.19 K, 69996 kPa	1577
283.19 K, 80287 kPa	1582.65
283.19 K, 89994 kPa	1587.84
283.2 K, 10046 kPa	1539.78
283.2 K, 29957 kPa	1553.14
283.2 K, 40033 kPa	1559.47
283.21 K, 20030 kPa	1546.57
283.21 K, 100034 kPa	1593.02
293.14 K, 99755 kPa	1584.89
293.15 K, 101.33 kPa	1523.37
293.15 K, 10202 kPa	1530.8
293.15 K, 89934 kPa	1579.84
293.16 K, 20787 kPa	1538.14
293.16 K, 59685 kPa	1562.92
293.16 K, 69993 kPa	1568.91
293.17 K, 1027 kPa	1524.24
293.17 K, 4981 kPa	1527.1
293.17 K, 29994 kPa	1544.31
293.17 K, 49993 kPa	1557.07
293.17 K, 79912 kPa	1574.47
293.19 K, 39872 kPa	1550.73
298.12 K, 19701 kPa	1532.45
298.12 K, 29779 kPa	1539.35
298.13 K, 39926 kPa	1546.05
298.14 K, 1156 kPa	1519.1
298.15 K, 101.33 kPa	1518.34
298.15 K, 49997 kPa	1552.45
298.17 K, 5194 kPa	1522.08
298.18 K, 90001 kPa	1575.41
298.18 K, 99950 kPa	1580.52
298.19 K, 10066 kPa	1525.62
298.19 K, 69997 kPa	1564.42
298.19 K, 79938 kPa	1570
298.2 K, 59613 kPa	1558.32
313.15 K, 101.33 kPa	1503.33
313.15 K, 10156 kPa	1510.84
313.15 K, 29996 kPa	1525.09
313.15 K, 39897 kPa	1531.84
313.15 K, 49994 kPa	1538.48
313.15 K, 60124 kPa	1544.89
313.15 K, 69993 kPa	1550.88
313.16 K, 1963 kPa	1504.67
313.16 K, 19902 kPa	1517.96
313.16 K, 80342 kPa	1556.93
313.16 K, 89994 kPa	1562.32
313.17 K, 5147 kPa	1507.08
313.17 K, 100087 kPa	1567.72
333.13 K, 80064 kPa	1539.77
333.13 K, 89994 kPa	1545.53
333.14 K, 69997 kPa	1533.66
333.14 K, 99911 kPa	1551
333.15 K, 101.33 kPa	1483.53
333.15 K, 60111 kPa	1527.39
333.16 K, 49997 kPa	1520.69
333.17 K, 2359 kPa	1485.34
333.17 K, 5331 kPa	1487.73
333.17 K, 40159 kPa	1513.9
333.18 K, 30001 kPa	1506.61
333.19 K, 9791 kPa	1491.26
333.19 K, 18829 kPa	1498.27
353.15 K, 101.33 kPa	1463.97
353.18 K, 2168 kPa	1465.71
353.18 K, 5223 kPa	1468.32
353.18 K, 69993 kPa	1516.73
353.18 K, 80056 kPa	1523.09
353.18 K, 90001 kPa	1529.06
353.19 K, 9673 kPa	1472.06
353.19 K, 20093 kPa	1480.58
353.19 K, 29997 kPa	1488.37
353.19 K, 39951 kPa	1495.89
353.19 K, 49979 kPa	1503.15
353.19 K, 60184 kPa	1510.23
353.19 K, 99944 kPa	1534.73
363.15 K, 101.33 kPa	1454.28
373.12 K, 724 kPa	1445.01
373.14 K, 4935 kPa	1448.84
373.14 K, 60448 kPa	1493.21
373.14 K, 69979 kPa	1499.69
373.14 K, 79868 kPa	1506.16
373.14 K, 89963 kPa	1512.49
373.14 K, 99920 kPa	1518.52
373.16 K, 30001 kPa	1470.33
373.16 K, 39858 kPa	1478.08
373.16 K, 49997 kPa	1485.67
373.17 K, 10147 kPa	1453.42
373.18 K, 19879 kPa	1461.85
